Data published in PMC3950665, “Syn5 RNA polymerase synthesizes precise run-off RNA products” (Nucleic Acids Research, 2013).

Tests used:
T7 RNA polymerase = target: T1, T7 RNA polymerase (Escherichia phage T7, UniProt P00573); assay: run-off transcription, agarose gel and RNA yield by A260; format: biochemical; conditions: ATP, GTP, NotI-linearized pET24-Syn5RNAP, 6 mM MgCl2, pH 8.0, no KCl, 37°C
T1 construct: gene 1

Syn5 RNA polymerase = target: T2, Syn5 RNA polymerase (Synechococcus phage Syn5, UniProt A4ZR96); assay: as above; format: biochemical; conditions: ATP, GTP, NotI-linearized pET24-Syn5RNAP, 6 mM MgCl2, pH 8.0, no KCl, 24°C
T2 construct: gene 15; His-tagged, pET24 (NdeI/NotI), expressed in E. coli BL21(DE3); single-subunit
T2 sequence (A4ZR96 1-779): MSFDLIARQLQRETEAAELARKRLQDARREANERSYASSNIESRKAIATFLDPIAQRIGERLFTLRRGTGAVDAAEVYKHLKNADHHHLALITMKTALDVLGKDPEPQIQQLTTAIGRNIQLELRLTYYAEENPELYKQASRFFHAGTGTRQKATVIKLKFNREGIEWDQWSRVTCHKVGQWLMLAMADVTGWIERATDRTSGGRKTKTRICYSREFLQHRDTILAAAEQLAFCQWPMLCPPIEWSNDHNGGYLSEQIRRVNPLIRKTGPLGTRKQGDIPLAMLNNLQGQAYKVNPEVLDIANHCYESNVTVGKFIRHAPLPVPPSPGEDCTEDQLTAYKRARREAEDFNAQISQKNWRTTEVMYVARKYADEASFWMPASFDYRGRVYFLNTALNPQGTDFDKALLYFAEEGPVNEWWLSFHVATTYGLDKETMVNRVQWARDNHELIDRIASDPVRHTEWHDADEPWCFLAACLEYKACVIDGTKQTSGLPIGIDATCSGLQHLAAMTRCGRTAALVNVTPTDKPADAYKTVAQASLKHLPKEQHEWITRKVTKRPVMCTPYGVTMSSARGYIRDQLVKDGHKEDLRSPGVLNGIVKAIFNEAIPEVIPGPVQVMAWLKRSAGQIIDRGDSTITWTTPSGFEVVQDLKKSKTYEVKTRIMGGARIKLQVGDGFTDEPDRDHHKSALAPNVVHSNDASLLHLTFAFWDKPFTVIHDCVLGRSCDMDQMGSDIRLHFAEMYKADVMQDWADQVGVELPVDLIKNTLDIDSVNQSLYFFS

T1 sequence (P00573 whole entry): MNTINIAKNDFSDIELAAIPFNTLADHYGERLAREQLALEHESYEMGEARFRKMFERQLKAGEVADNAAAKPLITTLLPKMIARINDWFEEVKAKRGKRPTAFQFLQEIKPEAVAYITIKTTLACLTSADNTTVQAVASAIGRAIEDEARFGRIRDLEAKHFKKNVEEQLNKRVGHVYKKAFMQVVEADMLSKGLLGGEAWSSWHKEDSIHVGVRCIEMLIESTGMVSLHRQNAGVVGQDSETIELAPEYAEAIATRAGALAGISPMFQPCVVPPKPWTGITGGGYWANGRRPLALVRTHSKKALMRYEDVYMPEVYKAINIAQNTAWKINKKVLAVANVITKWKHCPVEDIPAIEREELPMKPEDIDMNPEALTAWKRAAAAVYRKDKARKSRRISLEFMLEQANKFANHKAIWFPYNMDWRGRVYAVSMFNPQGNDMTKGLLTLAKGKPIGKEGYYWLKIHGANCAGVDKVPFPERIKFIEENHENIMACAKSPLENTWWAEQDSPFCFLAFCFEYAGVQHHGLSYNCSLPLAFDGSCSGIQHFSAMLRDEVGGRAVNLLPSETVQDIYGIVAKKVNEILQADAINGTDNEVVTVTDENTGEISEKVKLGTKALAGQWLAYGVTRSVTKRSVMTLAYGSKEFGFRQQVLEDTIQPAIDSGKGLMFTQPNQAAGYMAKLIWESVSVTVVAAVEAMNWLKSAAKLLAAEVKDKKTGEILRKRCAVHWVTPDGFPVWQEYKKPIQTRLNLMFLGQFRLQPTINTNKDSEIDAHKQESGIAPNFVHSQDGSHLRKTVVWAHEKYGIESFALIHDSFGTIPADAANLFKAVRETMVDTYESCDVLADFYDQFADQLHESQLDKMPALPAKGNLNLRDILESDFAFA

Row | Compound | run-off transcription, agarose gel and RNA yield by A260 (T7 RNA polymerase; replaces CTP at 600 µM, UTP) | run-off transcription, agarose gel and RNA yield by A260 (Syn5 RNA polymerase; replaces CTP at 600 µM, UTP) | run-off transcription, agarose gel and RNA yield by A260 (T7 RNA polymerase; replaces UTP at 600 µM, CTP) | run-off transcription, agarose gel and RNA yield by A260 (Syn5 RNA polymerase; replaces UTP at 600 µM, CTP)
1 | Cc1cn([C@@H]2O[C@H](COP(=O)(O)OP(=O)(O)OP(=O)(O)O)[C@@H](O)[C@H]2O)c(=O)nc1N [5-methylcytidine-5′-triphosphate] | T7 RNA polymerase also incorporates 5mC and Ps-U at comparable efficiencies | the efficiency by which Syn5 RNA polymerase incorporated 5mC and Ps-U | – | –
2 | O=c1[nH]cc([C@@H]2O[C@H](COP(=O)(O)OP(=O)(O)OP(=O)(O)O)[C@@H](O)[C@H]2O)c(=O)[nH]1 [pseudouridine-5′-triphosphate] | – | – | T7 RNA polymerase also incorporates 5mC and Ps-U at comparable efficiencies | the efficiency by which Syn5 RNA polymerase incorporated 5mC and Ps-U
